Test results as given in ChEMBL document CHEMBL1148828, “Deoxycholic acid-derived tetraoxane antimalarials and antiproliferatives(1)” (J Med Chem, 2007).
Activity calls are given as the source filed them. No cut-off for these calls is given here.

Columns and labels:
Liver microsomes = test: (§1) Metabolic stability in human liver microsomes; format: ADME, Microsome; details: microsomes
LOX IMVI = test: Antiproliferative activity against human LOX IMVI cells after 48 hrs; format: functional
NCI = test: Growth inhibition of human NCI DTP 60 cells; format: functional
HOP-92 = test: Antiproliferative activity against human HOP92 cells after 48 hrs; format: functional; details: Homo sapiens, HOP-92, 48 h
Plasmodium falciparum [1] = test: Antimalarial activity against Plasmodium falciparum W2; format: functional, organism-based
MDA-MB-435 = test: Antiproliferative activity against human MDA-MB-435 cells after 48 hrs; format: functional
NCI-H23 = test: Antiproliferative activity against human NCI-H23 cells after 48 hrs; format: functional; details: NCI-H23, 48 h
Mus musculus [2] = test: Survival of Plasmodium berghei KBG 173 infected CD1 mice (Mus musculus) at 80 mg/kg/day; format: ADME, organism-based; details: in vivo
ACHN = test: Antiproliferative activity against human ACHN cells after 48 hrs; format: functional
Plasmodium falciparum [3] = test: Antimalarial activity against Plasmodium falciparum TM91C235; format: functional, organism-based
Mus musculus [4] = test: Survival of Plasmodium berghei KBG 173 infected CD1 mice (Mus musculus) at 320 mg/kg/day; format: ADME, organism-based; details: in vivo
Plasmodium falciparum [5] = test: Antimalarial activity against Plasmodium falciparum D6; format: functional, organism-based
CCRF-CEM = test: Antiproliferative activity against human CCRF-CEM cells after 48 hrs; format: functional
SN12C = test: Antiproliferative activity against human SN12C cells after 48 hrs; format: functional
[6] = Metabolic stability in mouse liver microsomes; format: ADME, Microsome
Plasmodium berghei [7] = test: Antimalarial activity as survivors after 31 days in Plasmodium berghei KBG173 infected CD1 mice (Mus musculus) at 40 mg/kg/day; format: functional, organism-based; details: KBG 173
Plasmodium berghei [8] = test: Antimalarial activity as survivors after 31 days in Plasmodium berghei KBG173 infected CD1 mice (Mus musculus) at 20 mg/kg/day; format: functional, organism-based; details: KBG 173
HOP-62 = test: Antiproliferative activity against human HOP62 cells after 48 hrs; format: functional; details: HOP-62, 48 h
[9] = as §1; format: ADME, Microsome; details: liver microsomes
HCC 2998 = test: Antiproliferative activity against human HCC2998 cells after 48 hrs; format: functional; details: HCC 2998, 48 h
T47D = test: Antiproliferative activity against human T47D cells after 48 hrs; format: functional
Mus musculus [10] = test: Survival of Plasmodium berghei KBG 173 infected CD1 mice (Mus musculus) at 40 mg/kg/day; format: ADME, organism-based; details: in vivo
COLO 205 = test: Antiproliferative activity against human COLO205 cells after 48 hrs; format: functional
HCT-15 = test: Antiproliferative activity against human HCT15 cells after 48 hrs; format: functional; details: HCT-15, 48 h
M14 = test: Antiproliferative activity against human M14 cells after 48 hrs; format: functional; details: M14, 48 h, read-out: LC50 (the source's name)
Mus musculus [11] = test: Survival of Plasmodium berghei KBG 173 infected CD1 mice (Mus musculus) at 160 mg/kg/day; format: ADME, organism-based; details: in vivo
U-251 = test: Antiproliferative activity against human U251 cells after 48 hrs; format: functional; details: U-251, 48 h
HCT-116 = test: Antiproliferative activity against human HCT116 cells after 48 hrs; format: functional; details: HCT-116, 48 h
786-0 = test: Antiproliferative activity against human 786-0 cells after 48 hrs; format: functional; details: Homo sapiens, 786-0, 48 h
[12] = read-out: LC50 (the source's name)

CC(=O)O[C@H]1C[C@H]2[C@@H]([C@H](OC(C)=O)C[C@@H]3CC4(CC[C@@]32C)OOC2(CCC(C)CC2)OO4)[C@@H]2CC[C@H]([C@H](C)CCC(=O)NCCN(C)C)[C@@]12C (stereo in doubt; 23)
t1/2 (Liver microsomes): 120 min | GI50 (LOX IMVI): 57 nM | LC50 (concentration killing 50% of cells) (LOX IMVI; Homo sapiens, LOX IMVI, 48 h): 295 nM | TGI (LOX IMVI; Homo sapiens, LOX IMVI, 48 h): 130 nM | GI50 (NCI): 57 nM | GI50 (HOP-92): 70 nM | LC50 (concentration killing 50% of cells) (HOP-92): 2860 nM | TGI (HOP-92): 695 nM | IC50 (Plasmodium falciparum [1]): 43.5 nM | IC90 (Plasmodium falciparum [1]): 94 nM | GI50 (MDA-MB-435): 650 nM | TGI (MDA-MB-435): 1340 nM | CC50 (MDA-MB-435; [12]): 2780 nM | GI50 (NCI-H23): 318 nM | LC50 (concentration killing 50% of cells) (NCI-H23): 3.11 µM | TGI (NCI-H23): 1690 nM | Survival (Mus musculus [2]): 11 days | GI50 (ACHN): 592 nM | LC50 (concentration killing 50% of cells) (ACHN): 2640 nM | TGI (ACHN): 1250 nM | IC50 (Plasmodium falciparum [3]): 39.2 nM | IC90 (Plasmodium falciparum [3]): 102 nM | Survival (Mus musculus [4]): 17 days | IC50 (Plasmodium falciparum [5]): 43.8 nM | IC90 (Plasmodium falciparum [5]): 71.2 nM | GI50 (CCRF-CEM): 67 nM | TGI (CCRF-CEM): 151 nM | LC50 (concentration killing 50% of cells) (CCRF-CEM; Homo sapiens, CCRF-CEM, 48 h): 340 nM | GI50 (SN12C): 606 nM | LC50 (concentration killing 50% of cells) (SN12C): 2720 nM | TGI (SN12C): 1280 nM | t1/2 ([6]; microsomes): > 120 min

CC(=O)O[C@H]1C[C@H]2[C@@H](CC[C@@H]3CC4(CC[C@@]32C)OOC2(CCC(C)CC2)OO4)[C@@H]2CC[C@H]([C@H](C)CCC(=O)NCCN(C)C)[C@@]12C (stereo in doubt; 16) [listing 1 of 2 here]
Activity (Plasmodium berghei [7]): inactive

CC(=O)O[C@H]1C[C@H]2[C@@H]([C@H](OC(C)=O)C[C@@H]3CC4(CC[C@@]32C)OOC2(CCC(C)CC2)OO4)[C@@H]2CC[C@H]([C@H](C)CCC(=O)NCCN(C)C)[C@@]12C (stereo in doubt; 22)
Activity (Plasmodium berghei [8]): inactive

CC(=O)O[C@H]1C[C@H]2[C@@H](CC[C@@H]3CC4(CC[C@@]32C)OOC2(CCC(C)CC2)OO4)[C@@H]2CC[C@H]([C@H](C)CCC(=O)NCCN(C)C)[C@@]12C (stereo in doubt; 16) [listing 2 of 2 here]
GI50 (HOP-62): 54 nM | LC50 (HOP-62): 1160 nM | TGI (HOP-62): 230 nM | half-life [9]: 110 min | GI50 (HCC 2998): 77 nM | TGI (HCC 2998): 210 nM | CC50 (HCC 2998; [12]): 980 nM | GI50 (T47D): 130 nM | TGI (T47D): 410 nM | LC50 (concentration killing 50% of cells) (LOX IMVI): 22 nM | GI50 (LOX IMVI; Homo sapiens, LOX IMVI, 48 h): < 5 nM | TGI (LOX IMVI; Homo sapiens, LOX IMVI, 48 h): 7.4 nM | IC50 (Plasmodium falciparum [1]): 16.8 nM | IC90 (Plasmodium falciparum [1]): 19.8 nM | Survival (Mus musculus [10]): 9 days | GI (COLO 205): 0.083 µM | TGI (COLO 205; Homo sapiens, COLO 205, 48 h): 20 nM | CC50 (COLO 205; Homo sapiens, COLO 205, 48 h, read-out: LC50 (the source's name)): 490 nM | GI50 (HCT-15): 94 nM | CC50 (M14): 460 nM | IC50 (Plasmodium falciparum [3]): 14.7 nM | IC90 (Plasmodium falciparum [3]): 24.2 nM | Survival (Mus musculus [11]): 29 days | IC50 (Plasmodium falciparum [5]): 12.8 nM | IC90 (Plasmodium falciparum [5]): 18.7 nM | GI50 (U-251): 26 nM | TGI (U-251): 87 nM | GI (CCRF-CEM): 0.056 µM | LC50 (concentration killing 50% of cells) (CCRF-CEM; Homo sapiens, CCRF-CEM, 48 h): 500 nM | TGI (CCRF-CEM; Homo sapiens, CCRF-CEM, 48 h): 170 nM | GI50 (HCT-116): 9 nM | TGI (HCT-116): 21 nM | CC50 (HCT-116; [12]): 47 nM | half-life ([6]; liver microsomes): > 120 min | GI50 (786-0): 60 nM | TGI (786-0): 150 nM | CC50 (786-0; [12]): 390 nM
